According to patent US20240336897A1, “COMPOSITIONS AND METHODS FOR CELL REPROGRAMMING” (CORNELL UNIVERSITY, priority 2021, published 2024):

Key:
biPSCs [1] = assay: Base medium lacking individual inhibitors for GSK3β, MEK1/2 or TGFβ/activin/nodal; conditions: GMTi base medium lacking this inhibitor
Protocol: (§1) The biPSC colonies emerging from reprogramming trials were manually picked, dissociated into single cells using TrypLE™ (ThermoFisher) and plated on iMEFs in GMTi medium. For passaging, confluent cultures of biPSCs were rinsed once with PBS and incubated with TrypLE for 5 minutes. Cells were then collected in fibroblast medium, and centrifuged at 200×rcf for 5 minutes. The pellet was then resuspended in GMTi medium for plating on iMEFs. Passaging of biPSCs was performed repeatedly (every 3-4 days), with concurrent examination and imaging of morphology, growth characteristics and expression of PSC markers. […] Base medium conditions lacking individual inhibitors for GSK3β, MEK1/2 or TGFβ/activin/nodal were also prepared and tested for their ability to sustain pluripotent cultures. All cultures were maintained in a humidified incubator at 37° C. under an atmosphere of 5% CO2.

biPSCs [2] = conditions: MEK1/2 and GSK3B inhibitors used together; cited from earlier work
biPSCs [3] = assay: Sustenance of biPSCs using specific pathway inhibition (GMTi medium): repeated passaging, morphology; conditions: at least over a few passages, cell morphology
Protocol: as §1

Compound	effect of removing the single inhibitor from biPSC cultures (biPSCs [1])	effect on biPSCs (biPSCs [2])	effect of excluding the factor from the GMTi medium on biPSCs (biPSCs [3])
Cc1cccc(-c2nn(C(=S)Nc3ccccc3)cc2-c2ccnc3ccccc23)n1 [A83-01]	resulted in differentiation	–	–
Cc1c[nH]c(-c2cnc(NCCNc3ccc(C#N)cn3)nc2-c2ccc(Cl)cc2Cl)n1 [CHIR99021]	resulted in differentiation	suspend biPSCs in a pluripotent state, but without the ability to proliferate	–
O=C(NOC[C@H](O)CO)c1ccc(F)c(F)c1Nc1ccc(I)cc1F [PD0325901]	–	suspend biPSCs in a pluripotent state, but without the ability to proliferate	–
IL6: interleukin 6, leukemia inhibitory factor family member	–	–	did not negatively affect biPSCs
LIF: human leukemia inhibitory factor	–	–	did not negatively affect biPSCs
